Source: patent US4801606A (priority 1987, dated 1989)
Converted amounts (≈) assume the structure as drawn. Read-outs that look alike come from different tables or passages of the source.

How the values were obtained:
[1] = as described in British patent specification Nos. 1,078,049 and 932,875; cited from earlier work
Candida albicans = assay: microbe, parasite or virus in culture

SMILES	antimitotic activity [1]	VSV CYT (CV-1 cells; 0.2 ug/well) [LS]	VSV CYT (CV-1 cells; 2 ug/well) [LS]	VSV CYT (CV-1 cells; 20 ug/well) [LS]	MIC (Candida albicans) [µg/mL]
C=C1CC(OC)(C(O)C(=O)NC(OC)C2CC(O)C(C)(C)C(CC(COC)OC)O2)OC(C)C1C (stereo not shown) [Pederin]	antimitotic activity				
C=C1CC(OC)(C(O)C(=O)NC2OCOC3C2OC(CC(O)CCC/C=C/C=C/C=C/C(=O)NC(CCCNC(=N)N)C(=O)O)C(C)(C)C3OC)OC(C)C1C (stereo not shown) [Onnamide A (1), onnamide A]		0	0	0	50 (≈ 63 µM)
C=C1CC(OC)(C(O)C(=O)NC2OCOC3C2OC(CC(O)CCC/C=C/C=C/C=C/C(=O)NC(CCCNC(=N)N)C(=O)OC)C(C)(C)C3OC)OC(C)C1C (stereo not shown) [Methyl ester (2), Methyl ester of onnamide A]					5 (≈ 6.19 µM)
C=C1CC(OC)(C(O)C(=O)NC2OCOC3C2OC(CC(O)CCC/C=C/C=C/C=C/C(=O)NC(CCCNc2nc(C)cc(C)n2)C(=O)O)C(C)(C)C3OC)OC(C)C1C (stereo not shown) [Pyrimidine derivative (3)]					50 (≈ 58.3 µM)
